The subject of series [1] is Lolium perenne (LOLPE). The series is described as follows: Example A glasshouse herbicide test, post-emergence, LOLPE. The note with it: Lolium perenne, post-emergence, 312 h, Rate 250 g/ha, sprayed after 8 days cultivation, evaluated after 13 days, read-out: Post-Emergence Activity LOLPE (100=total damage to plant; 0=no damage to plant). The series is classed as in vivo. Summed up: (§1)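 Read-out: percent visual plant damage 13 days post-treatment (100 = total). Application at 1 day (pre-emergence) or 8 days (post-emergence) after sowing, in acetone/water (50:50) with 0.5% Tween 20; glasshouse at 24/16° C., 14 hours light, 65% humidity.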

For series [2], the system named is Alopecurus myosuroides (ALOMY). The experiment in a line: Example A glasshouse herbicide test, post-emergence, ALOMY. The series is classed as in vivo. The settings on record: Alopecurus myosuroides, post-emergence, 312 h, Rate 250 g/ha, sprayed after 8 days cultivation, evaluated after 13 days, read-out: Post-Emergence Activity ALOMY (100=total damage to plant; 0=no damage to plant). Summed up:
as §1

The test system of series [3] is Echinochloa crus-galli (ECHCG). The series is described as follows: Example A glasshouse herbicide test, post-emergence, ECHCG. The series is classed as in vivo. The note with it: Echinochloa crus-galli, post-emergence, 312 h, Rate 250 g/ha, sprayed after 8 days cultivation, evaluated after 13 days, read-out: Post-Emergence Activity ECHCG (100=total damage to plant; 0=no damage to plant). In a few lines:
as §1

Series [4] relates to Avena fatua (AVEFA). The series is described as follows: Example A glasshouse herbicide test, post-emergence, AVEFA. The series is classed as in vivo. The settings on record: Avena fatua, post-emergence, 312 h, Rate 250 g/ha, sprayed after 8 days cultivation, evaluated after 13 days, read-out: Post-Emergence Activity AVEFA (100=total damage to plant; 0=no damage to plant). In a few lines:
as §1

Series [5] deals with Lolium perenne (LOLPE). The experiment in a line: Example A glasshouse herbicide test, pre-emergence, LOLPE. The series is classed as in vivo. The note with it: Lolium perenne, pre-emergence, 312 h, Rate 250 g/ha, sprayed after cultivation for one day, evaluated after 13 days, read-out: Pre-Emergence Activity LOLPE (100=total damage to plant; 0=no damage to plant). In a few lines:
as §1

Series [6] deals with Alopecurus myosuroides (ALOMY). The experiment in a line: Example A glasshouse herbicide test, pre-emergence, ALOMY. The series is classed as in vivo. The settings on record: Alopecurus myosuroides, pre-emergence, 312 h, Rate 250 g/ha, sprayed after cultivation for one day, evaluated after 13 days, read-out: Pre-Emergence Activity ALOMY (100=total damage to plant; 0=no damage to plant). Summed up: as §1

The test system of series [7] is Echinochloa crus-galli (ECHCG). The series is described as follows: Example A glasshouse herbicide test, pre-emergence, ECHCG. The series is classed as in vivo. The settings on record: Echinochloa crus-galli, pre-emergence, 312 h, Rate 250 g/ha, sprayed after cultivation for one day, evaluated after 13 days, read-out: Pre-Emergence Activity ECHCG (100=total damage to plant; 0=no damage to plant). In a few lines: as §1

The subject of series [8] is Avena fatua (AVEFA). The experiment in a line: Example A glasshouse herbicide test, pre-emergence, AVEFA. The series is classed as in vivo. The note with it: Avena fatua, pre-emergence, 312 h, Rate 250 g/ha, sprayed after cultivation for one day, evaluated after 13 days, read-out: Pre-Emergence Activity AVEFA (100=total damage to plant; 0=no damage to plant). In a few lines:
as §1

For series [9], the system named is Winter Wheat variety 'Hereward'. The series is described as follows: Example B crop damage test, post-emergence, unsafened wheat. The series is classed as in vivo. The note with it: Rate 250 g/ha; post-emergence spray after 8 days cultivation; no safener; evaluated after 13 days. In a few lines:
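Winter wheat 'Hereward' was sprayed post-emergence 8 days after sowing, using formulated active ingredient in acetone/water (50:50) with 0.5% Tween 20. Plants grew in a glasshouse at 24/16 °C day/night, 14 h light and 65% humidity. Damage was scored 13 days later (0 = none, 100 = total).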

For series [10] the test system is unchanged. The series is described as follows: Example B crop damage test, post-emergence, wheat seed treated with safener cloquintocet mexyl. The series is classed as in vivo. The settings on record: Rate 250 g/ha; post-emergence spray 8 days after sowing; seed treated with cloquintocet mexyl 0.5 g/kg dry seed; evaluated after 13 days. Summed up:
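Wheat seed pre-treated with cloquintocet mexyl at 0.5 g/kg seed, sown 8 days before post-emergence spraying of compound in acetone/water (50:50) with 0.5% Tween 20. Glasshouse at 24/16° C, 14 h light, 65% humidity. Damage scored visually after 13 days, 0 (none) to 100 (total).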

As a reminder, the melting point is the temperature of the solid-liquid transition. As to `COc1ccc(CC2CC(=O)C(c3c(C)cc(C)cc3C)C2=O)cc1` (centres unmarked) [Compound A24], the melting point lay within 197.3 to 197.6 °C. Further, the pest or weed control at 250 g/ha in [1] was determined as 80%. Moreover, the pest or weed control at 250 g/ha in [2] was 80%. For the same compound, the pest or weed control at 250 g/ha in series [3] was determined as 30%. Also, the pest or weed control at 250 g/ha in series [4] stood at 90%. In series [5], the pest or weed control at 250 g/ha is 100%. Besides, in [6], the pest or weed control at 250 g/ha was found to be 90%. Besides, the pest or weed control at 250 g/ha in series [7] turned out to be 80%. Besides, the pest or weed control at 250 g/ha in [8] turned out to be 80%. Further, in series [9], the “Winter Wheat (Hereward) damage (100=total damage to plant; 0=no damage to plant)” value turned out to be 40. The “Winter Wheat (Hereward) + cloquintocet mexyl damage (100=total damage to plant; 0=no damage to plant)” value in [10] came out at 10.

Values taken from patent publication US8791303B2, “Herbicides” (Syngenta Limited, priority 2009, dated 2014).
